Test results: patent US7235689B2, “Hydroxamic acid derivatives having anti-inflammatory action” (Italfarmaco SpA, priority 2003, dated 2007)

How the values were obtained:
[1] = Metabolic resistance in vitro, S9 liver fraction; format: in vitro ADME; conditions: 6 μg/ml, 37° C., phosphate buffer pH 7.4, S9 fraction protein content 2 mg/ml
Method: The metabolic resistance of some compounds described in the preceding examples was evaluated by incubating the substances with the S9 fraction of a microsomal preparation of liver cells. Each compound (6 μg/ml) was incubated at 37° C. for 30 min. in phosphate buffer (pH 7.4) containing the S9 fraction (protein content 2 mg/ml). The reaction was stopped by cooling in an ice bath and adding an equal volume of water/acetonitrile (50:50) containing 0.2% of trifluoroacetic acid. After centrifuging, an aliquot of the supernatant fluid was analyzed by HPLC to evaluate the percentage of product that had remained intact.

[2] = system: TNFα production in human monocytes stimulated with LPS; experiment: Inhibition of TNFα production in human monocytes stimulated with LPS (in vitro); format: cell-based; conditions: Monocyte; human mononuclear peripheral blood cells, LPS 10 ng/ml, 24 hours, ELISA; average of at least two determinations
Method: The compounds were dissolved in DMSO to a final concentration of 120 mM and were stored at −80° C. The solutions for the test were prepared by diluting the mother solutions in RPMI 1640 with the addition of 1% FCS and 0.01% DMSO and were filtered with 0.2 μm filters.
Mononuclear peripheral blood cells were obtained from “buffy coats” of healthy donors by separation in a Ficoll-Hypaque gradient. The cells were spread in plates with 96 wells at a concentration of about 500,000 cells per well, suspended in RPMI 1640 containing 1% FCS and were incubated at 37° C. in the presence of various concentrations (from 10^−6 to 10^−11 M) of the compounds to be tested.
After 1 hour, LPS was added (to a final concentration of 10 ng/ml; obtained from E. coli 055:B5) and the plates were incubated at 37° C. for a further 24 hours. Upon completion, the supernatant fluids were collected and used for the determination of the TNFα content by ELISA (ELISA Duoset Kit; R&D systems, Minneapolis, Minn., USA).
The concentration of TNFα was calculated with the use of a calibration curve and the IC50 values (concentration which inhibits the production of the cytokine by 50%) were calculated from the curve obtained, giving the percentage inhibition values for each individual concentration of the compound under test.
The values obtained for the compounds described in the preceding examples are given in the following table (the values are the average of the results obtained in at least two determinations, performed with cells of different donors).

TNFα production = experiment: Inhibition of TNFα production in mice induced by LPS (in vivo); conditions: CD1 female mice, 1 mg/kg orally 60 min. prior to LPS 2 mg/kg i.p., blood TNFα 90 min. after LPS
Method: For the compounds of the present invention, the capacity to inhibit TNFα production induced by the administration of LPS was evaluated in mice.
A lethal quantity of LPS (E. coli 055:B5; 2 mg/kg) was administered to the animals (CD1 female mice) by an intraperitoneal route; 90 min. after administration, the animals were killed and the TNFα content present in the blood was determined by ELISA assay.
The compounds under test, suspended in Methyl Cellosolve (0.5% in water), were administered orally, 60 min. prior to the administration of LPS, at a dose of 1 mg/kg.
The results are given in the following table; the values are expressed as percentage inhibition of TNFα production in comparison with the control group.

mouse HDAC-1 enzyme = mouse HDAC-1 enzyme (Mus musculus, UniProt O09106); experiment: Inhibition of the enzymatic activity of histone deacetylase; format: biochemical
Chain of mouse HDAC-1 enzyme (O09106 whole entry): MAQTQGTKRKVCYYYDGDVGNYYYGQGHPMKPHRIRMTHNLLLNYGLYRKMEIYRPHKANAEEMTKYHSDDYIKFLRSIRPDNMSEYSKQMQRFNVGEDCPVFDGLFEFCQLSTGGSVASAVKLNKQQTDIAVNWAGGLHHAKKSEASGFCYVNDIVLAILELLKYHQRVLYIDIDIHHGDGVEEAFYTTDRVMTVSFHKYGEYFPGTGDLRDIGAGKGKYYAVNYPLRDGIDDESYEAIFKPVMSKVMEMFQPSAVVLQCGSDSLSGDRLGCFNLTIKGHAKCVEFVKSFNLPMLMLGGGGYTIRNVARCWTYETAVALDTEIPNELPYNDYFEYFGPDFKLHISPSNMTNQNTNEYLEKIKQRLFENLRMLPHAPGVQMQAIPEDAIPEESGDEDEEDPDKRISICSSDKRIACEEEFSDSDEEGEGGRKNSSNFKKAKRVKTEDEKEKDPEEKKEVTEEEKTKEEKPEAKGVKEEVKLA
Method: The capacity of the compounds of the invention to inhibit the activity of the histone deacetylase enzyme was evaluated with the use of the mouse HADC-1 enzyme. The assay was performed by the method already described in the literature [Biochem. Biophys. Acta, 1996, vol. 1296, p. 181]. The IC50 values (concentration which inhibits the activity of the enzyme by 50%) were derived from the percentages of inhibition obtained with various concentrations of the compound under test; these values are given in the following table.

[3] = system: human HEP-G2 hepatoma cell line; experiment: Cytotoxicity in vitro on HEP-G2 cells (formazane colorimetric assay); format: cell-based; conditions: 48 h
Method: The cytotoxicity of some compounds described in the preceding examples was evaluated in vitro on the human HEP-G2 hepatoma cell line by a commercial colorimetric method (Cell Titer 96® Aqueous One Solution Cell Proliferation Assay—Promega); the method determines the number of living cells on the basis of their ability to metabolize a tetrazolium salt producing formazane. The quantity of formazane produced is proportional to the number of living cells.
The HPE-G2 cells were distributed in micro-plates with 96 wells at a density of 4×10^4 cells/well (100 μl) in M199 medium containing 10% of bovine foetal serum and supplements (complete medium).
After incubation for 24 h (37° C., 5% CO2, 90% humidity) the cells were washed once and the medium was replaced with 200 μl of complete medium containing the substances to be tested at final concentrations of 10^−5, 10^−6 and 10^−7 M. The test was performed in triplicate.
The plates were incubated for a further 48 h, after which 100 μl of medium was removed and 20 μl per well of dye solution was added in accordance with the supplier's instructions. The optical density (λ=490 nm) was read after incubation for 1 h at 37° C. with the use of a plate reader (Victor 2—Wallace Perkin Elmer).
The results are expressed as the percentage inhibition of the formation of formazane in comparison with the control.

Residual product after 30 min. [1] [%]	IC50 [2] [nM]	IC50 (mouse HDAC-1 enzyme) [nM]	SMILES	Inhibition of TNFα production in comparison with the control group (TNFα production) [%]	Cytotoxicity at 10^−6 M (percentage inhibition of the formation of formazane) [3] [%]
90.2	51.5	113	COc1ccc(CC(=O)Nc2ccc(C(=O)NO)cc2)cc1 [Ex. 04, N-hydroxy-4-[2-(4-methoxy-phenyl)-acetylamino]-benzamide]	42	0
–	391	112	O=C(Cc1ccccc1OCc1ccccc1)Nc1ccc(C(=O)NO)cc1 [Ex. 18, N-hydroxy-4-[2-(2-benzyloxy-phenyl)-acetylamino]-benzamide]	–	–
78.9	14.5	142	O=C(Cc1ccc(C(F)(F)F)cc1)Nc1ccc(C(=O)NO)cc1 [Ex. 01, N-hydroxy-4-[2-(4-trifluoromethyl-phenyl)-acetylamino]-benzamide]	67	3.8
–	157	106	O=C(CCc1ccccc1OC(=O)c1ccccc1)Nc1ccc(C(=O)NO)cc1 [Ex. 14, 2-[2-(4-hydroxycarbamoyl-phenylcarbamoyl)-ethyl]-phenyl ester of benzoic acid]	–	–
60.7	26	219	COc1cccc(CCC(=O)Nc2ccc(C(=O)NO)cc2)c1 [Ex. 03, N-hydroxy-4-[3-(3-methoxy-phenyl)-propionylamino]-benzamide]	56	7.3
–	27	146	O=C(Cc1ccc([N+](=O)[O-])cc1)Nc1ccc(C(=O)NO)cc1 [Ex. 15, N-hydroxy-4-[2-(4-nitro-phenyl)-acteylamino]-benzamide]	–	0
68.4	17	19	O=C(CCc1cc(C(F)(F)F)cc(C(F)(F)F)c1)Nc1ccc(C(=O)NO)cc1 [Ex. 06, N-hydroxy-4-[3-(3,5-bis-trifluoromethyl-phenyl)-propionyl-amino]-benzamide]	–	13
89.0	32	90	CCOc1ccc(CC(=O)Nc2ccc(C(=O)NO)cc2)cc1 [Ex. 05, N-hydroxy-4-[2-(4-ethoxy-phenyl)-acetylamino]-benzamide]	–	0
–	320	58	CSc1ccc(CC(=O)Nc2ccc(C(=O)NO)cc2)cc1 [Ex. 08, N-hydroxy-4-[2-(4-methylsulphanil-phenyl)-acetylamino]-benzamide]	–	–
–	70	67	O=C(Cc1cccc(C(F)(F)F)c1)Nc1ccc(C(=O)NO)cc1 [Ex. 09, N-hydroxy-4-[2-(3-trifluoromethyl-phenyl)-acetylamino]-benzamide]	–	–
–	259	118	O=C(Cc1ccccc1Oc1ccccc1)Nc1ccc(C(=O)NO)cc1 [Ex. 16, N-hydroxy-4-[2-(2-phenoxy-phenyl)-acetylamino]-benzamide]	–	–
–	227	7	O=C(Cc1ccc(-c2ccccc2)cc1)Nc1ccc(C(=O)NO)cc1 [Ex. 12, N-hydroxy-4-[2-(diphenyl-4-yl)-acteylamino]-benzamide]	–	–
–	187	202	COc1cccc(CC(=O)Nc2ccc(C(=O)NO)cc2)c1OC [Ex. 13, N-hydroxy-4-[2-(2,3-dimethoxy-phenyl)-acetylamino]-benzamide]	–	–
–	280	255	COc1cc(CC(=O)Nc2ccc(C(=O)NO)cc2)c([N+](=O)[O-])cc1OC [Ex. 17, N-hydroxy-4-[2-(4,5-dimethoxy-2-nitro-phenyl)-acetylamino]-benzamide]	–	–
–	76	–	CC(CC(=O)Nc1ccc(C(=O)NO)cc1)c1ccccc1 (stereo not drawn) [Ex. 02, N-hydroxy-4-(3-phenyl-butyrylamino)-benzamide]	–	–
–	1000	214	O=C(Cc1ccccc1[N+](=O)[O-])Nc1ccc(C(=O)NO)cc1 [Ex. 19, N-hydroxy-4-[2-(2-nitro-phenyl)-acetylamino]-benzamide]	–	–
–	108	102	O=C(Cc1cccc(Oc2ccccc2)c1)Nc1ccc(C(=O)NO)cc1 [Ex. 11, N-hydroxy-4-[2-(3-phenoxy-phenyl)-acetylamino]-benzamide]	–	–
–	134	130	O=C(Cc1cccc([N+](=O)[O-])c1)Nc1ccc(C(=O)NO)cc1 [Ex. 10, N-hydroxy-4-[2-(3-nitro-phenyl)-acetylamino]-benzamide]	–	–
–	45	14	COc1cc(CC(=O)Nc2ccc(C(=O)NO)cc2)cc(OC)c1OC [Ex. 07, N-hydroxy-4-[2-(3,4,5-trimethoxy-phenyl)-acetylamino]-benzamide]	–	–
